How the values were obtained:
[1] = biological target: CLK4 (Homo sapiens, UniProt Q9HAZ1); conditions: 1 μM; Run 1, Run 2
[2] = biological target: T1, MARK4 (Homo sapiens, UniProt Q96L34); experiment: biochemical; conditions: read-out: % enzyme activity, 1 μM; Run 1, Run 2
T1 sequence (Q96L34 1-752): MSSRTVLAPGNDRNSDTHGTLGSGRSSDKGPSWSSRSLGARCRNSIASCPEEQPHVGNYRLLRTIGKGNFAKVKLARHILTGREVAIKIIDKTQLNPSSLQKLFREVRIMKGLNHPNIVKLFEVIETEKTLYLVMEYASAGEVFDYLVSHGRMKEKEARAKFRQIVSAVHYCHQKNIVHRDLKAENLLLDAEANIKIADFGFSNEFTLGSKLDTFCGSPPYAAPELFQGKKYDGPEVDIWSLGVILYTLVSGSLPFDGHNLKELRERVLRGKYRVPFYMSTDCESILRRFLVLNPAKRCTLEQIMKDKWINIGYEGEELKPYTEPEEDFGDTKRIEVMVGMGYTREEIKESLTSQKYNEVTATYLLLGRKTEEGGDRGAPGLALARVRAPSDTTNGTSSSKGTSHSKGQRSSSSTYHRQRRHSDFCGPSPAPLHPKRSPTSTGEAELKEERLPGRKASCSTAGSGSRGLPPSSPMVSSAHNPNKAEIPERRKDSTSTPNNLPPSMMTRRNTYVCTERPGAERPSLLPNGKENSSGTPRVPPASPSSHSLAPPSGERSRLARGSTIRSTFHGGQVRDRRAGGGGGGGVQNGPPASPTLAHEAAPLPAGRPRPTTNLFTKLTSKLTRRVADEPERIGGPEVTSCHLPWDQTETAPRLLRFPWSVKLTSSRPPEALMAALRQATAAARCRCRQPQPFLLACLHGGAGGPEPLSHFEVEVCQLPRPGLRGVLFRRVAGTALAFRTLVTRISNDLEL

[3] = biological target: T2, EPHA8 (Homo sapiens, UniProt P29322); experiment: biochemical; conditions: read-out: % enzyme activity, 1 μM; Run 1, Run 2
T2 sequence (P29322 28-1005): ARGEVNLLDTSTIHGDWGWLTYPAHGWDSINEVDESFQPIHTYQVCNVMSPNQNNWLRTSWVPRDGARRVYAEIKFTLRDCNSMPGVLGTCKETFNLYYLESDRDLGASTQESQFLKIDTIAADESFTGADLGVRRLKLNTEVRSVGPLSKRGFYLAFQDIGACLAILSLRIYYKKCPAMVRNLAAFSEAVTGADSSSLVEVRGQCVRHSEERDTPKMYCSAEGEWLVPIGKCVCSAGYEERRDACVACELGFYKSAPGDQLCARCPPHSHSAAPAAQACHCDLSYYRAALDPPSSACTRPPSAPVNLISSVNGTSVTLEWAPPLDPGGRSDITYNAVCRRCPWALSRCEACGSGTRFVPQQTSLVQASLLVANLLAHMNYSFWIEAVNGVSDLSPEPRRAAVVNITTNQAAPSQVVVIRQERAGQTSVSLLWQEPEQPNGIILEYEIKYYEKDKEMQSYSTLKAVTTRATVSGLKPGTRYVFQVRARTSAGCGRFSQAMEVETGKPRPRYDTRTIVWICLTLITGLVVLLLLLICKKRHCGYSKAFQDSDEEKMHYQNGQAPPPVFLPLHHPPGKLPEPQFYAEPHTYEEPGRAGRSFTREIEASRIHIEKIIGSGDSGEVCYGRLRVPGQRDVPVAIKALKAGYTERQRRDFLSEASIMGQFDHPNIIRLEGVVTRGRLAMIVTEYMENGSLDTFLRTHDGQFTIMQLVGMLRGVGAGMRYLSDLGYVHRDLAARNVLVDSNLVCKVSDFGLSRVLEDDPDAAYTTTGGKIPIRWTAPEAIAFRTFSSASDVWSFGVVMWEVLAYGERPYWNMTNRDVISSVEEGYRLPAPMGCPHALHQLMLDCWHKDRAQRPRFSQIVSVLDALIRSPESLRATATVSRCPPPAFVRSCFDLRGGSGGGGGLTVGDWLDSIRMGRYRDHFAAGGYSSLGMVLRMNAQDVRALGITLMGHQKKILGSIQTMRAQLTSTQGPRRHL

[4] = biological target: T3, EPHA3 (Homo sapiens, UniProt P29320); conditions: 1 μM; Run 1, Run 2
T3 sequence (P29320 21-983): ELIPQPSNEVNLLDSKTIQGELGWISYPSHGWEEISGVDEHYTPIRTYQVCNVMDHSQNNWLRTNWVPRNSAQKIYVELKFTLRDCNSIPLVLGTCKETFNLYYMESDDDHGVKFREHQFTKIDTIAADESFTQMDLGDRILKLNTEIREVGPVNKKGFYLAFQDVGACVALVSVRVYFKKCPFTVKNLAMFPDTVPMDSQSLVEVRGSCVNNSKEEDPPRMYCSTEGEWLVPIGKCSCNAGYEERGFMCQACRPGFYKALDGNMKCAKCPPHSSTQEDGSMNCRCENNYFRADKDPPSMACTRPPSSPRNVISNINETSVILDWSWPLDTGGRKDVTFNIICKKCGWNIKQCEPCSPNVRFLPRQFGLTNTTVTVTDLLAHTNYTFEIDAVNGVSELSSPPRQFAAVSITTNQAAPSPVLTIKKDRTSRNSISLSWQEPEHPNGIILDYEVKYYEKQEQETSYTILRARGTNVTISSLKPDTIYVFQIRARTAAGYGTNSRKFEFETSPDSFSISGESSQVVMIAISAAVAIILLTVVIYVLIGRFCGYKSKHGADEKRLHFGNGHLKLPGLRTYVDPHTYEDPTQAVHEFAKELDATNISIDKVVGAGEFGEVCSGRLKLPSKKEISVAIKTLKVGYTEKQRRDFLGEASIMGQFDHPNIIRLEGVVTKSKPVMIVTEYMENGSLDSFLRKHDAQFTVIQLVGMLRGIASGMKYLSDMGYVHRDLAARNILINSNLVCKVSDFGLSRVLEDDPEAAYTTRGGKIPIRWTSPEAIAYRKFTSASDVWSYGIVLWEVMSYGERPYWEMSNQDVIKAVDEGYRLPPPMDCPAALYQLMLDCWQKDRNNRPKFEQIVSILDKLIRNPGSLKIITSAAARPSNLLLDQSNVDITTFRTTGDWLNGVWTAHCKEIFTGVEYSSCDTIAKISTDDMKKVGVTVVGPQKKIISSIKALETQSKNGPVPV

Sequence of CLK4 (Q9HAZ1 whole entry): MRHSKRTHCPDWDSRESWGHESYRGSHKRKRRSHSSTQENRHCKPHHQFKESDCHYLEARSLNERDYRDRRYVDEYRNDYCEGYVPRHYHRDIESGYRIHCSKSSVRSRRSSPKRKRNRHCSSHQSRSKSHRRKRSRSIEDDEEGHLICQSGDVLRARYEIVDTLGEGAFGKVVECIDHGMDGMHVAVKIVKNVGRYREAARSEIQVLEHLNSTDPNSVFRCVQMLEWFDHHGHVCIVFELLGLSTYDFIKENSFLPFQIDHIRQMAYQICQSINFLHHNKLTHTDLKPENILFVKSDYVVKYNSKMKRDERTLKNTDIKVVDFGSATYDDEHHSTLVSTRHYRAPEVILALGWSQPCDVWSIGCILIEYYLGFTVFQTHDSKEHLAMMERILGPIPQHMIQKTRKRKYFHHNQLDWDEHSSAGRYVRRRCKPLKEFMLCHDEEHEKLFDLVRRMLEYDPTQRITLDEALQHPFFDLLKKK

Row | SMILES | % enzyme activity [1] [%] | remaining activity at 1 µM [2] [%] | remaining activity at 1 µM [3] [%] | % enzyme activity [4] [%]
1 | COc1cc(-c2cncc(-c3ccc(N4CCN(C)CC4)cc3)c2C)cc(F)c1C(N)=O [Compound 26a, 2-Fluoro-6-methoxy-4-(4-methyl-5-(4-(4-methylpiperazin-1-yl)phenyl)pyridin-3-yl)benzamide] | 85.58 | 83.7 | 95.3 | 94.70
2 | COc1cc(-c2cncc(-c3ccc(N4C[C@@H](C)N(C)[C@@H](C)C4)cc3)c2C)cc(F)c1C(N)=O [Compound 26c, 2-Fluoro-6-methoxy-4-(4-methyl-5-(4-((3R,5S)-3,4,5-trimethylpiperazin-1-yl)phenyl)pyridin-3-yl)benzamide] | 91.14 | 96.8 | 97.5 | 98.11

Reference: PMC8213057, “Targeting ALK2: An Open Science Approach to Developing Therapeutics for the Treatment of Diffuse Intrinsic Pontine Glioma” (Journal of Medicinal Chemistry, 2020)
